Reference: EP0168522A2, “Active agent-containing shaped article” (Akzo Patente GmbH, priority 1983, dated 1986)
In brackets after ≈: the same amount, converted by molar mass.

Test: Water solubility of the active agent
Format: physicochemical
Settings: in water; read-out: Wasserlöslichkeit

| solubility [mg/mL] | SMILES |
| --- | --- |
| 14 (≈ 92.6 mM) | CC(=O)Nc1ccc(O)cc1 [Acetaminophen] |
| ~70 (≈ 636 mM) | Oc1ccc(O)cc1 [Hydrochinon] |
